Structures are written as SMILES. Read-outs that look alike come from different tables or passages of the source.

The data set is described as follows: oral bioavailability in dogs. It counts as in vivo. To be noted: unformulated solid in a capsule dosage form, 5 mg/kg oral dose in dogs. As to the method:
Dogs (beagle dogs, mixed sexes, weighing 7-14 kg) were fasted overnight prior to dosing, but were permitted water ad libitum. Each dog received a 100 µg/kg subcutaneous dose of histamine approximately 30 minutes prior to dosing. Each dog received a single dosage form corresponding to a 5 mg/kg dose of the drug. The dose was followed by approximately 10 milliliters of water. Blood samples were obtained from each animal prior to dosing and 0.25, 0.5, 1.0, 1.5, 2, 3, 4, 6, 8, 10, and 12 hours after drug administration. The plasma was separated from the red cells by centrifugation and frozen (-30 °C) until analysis. Concentrations of parent drug were determined by reverse phase HPLC with low wavelength UV detection following liquid-liquid extraction of the plasma samples. The parent drug area under the curve was calculated by the trapezoidal method over the time course of the study. The absolute bioavailability of each test composition was calculated by comparing the area under the curve after oral dosing to that obtained from a single intravenous dose. Each capsule or capsule composition was evaluated in a group containing at least six dogs; the values reported are averages for each group of dogs.

Take `CC(C)c1nc(CN(C)C(=O)NC(C(=O)NC(Cc2ccccc2)CC(O)C(Cc2ccccc2)NC(=O)OCc2cncs2)C(C)C)cs1` (centres unmarked) [bis-tosylate of a compound of formula I]: the bioavailability (dog, in vivo, read-out: bioavailability) was under 2%.

For `CC(C)c1nc(CN(C)C(=O)N[C@H](C(=O)N[C@@H](Cc2ccccc2)C[C@H](O)[C@H](Cc2ccccc2)NC(=O)OCc2cncs2)C(C)C)cs1` [compound of formula I], the bioavailability result was “less than 2%”.

The term bioavailability denotes the share of a dose that reaches the circulation, judged against a reference dose that is usually intravenous.

These data come from patent publication EP2269591B1, “IMPROVED PHARMACEUTICAL FORMULATIONS” (AbbVie Inc., priority 2000, dated 2001).
